US12215354B2, “Differentiation of human embryonic stem cells into single hormonal insulin positive cells” (Janssen Biotech, Inc., priority 2011, dated 2025)

Test system: human embryonic stem cell line H1
Experiment: Real-time PCR gene expression, dose and stage of ascorbic acid (Example 12)
Type: cell-based
Experimental: Cells of the human embryonic stem cell line H1 at various passages (passage 40 to passage 52) were seeded as single cells at a density of 100,000 cells/cm^2 on MATRIGEL™ (1:30 dilution) coated dishes in mTesr™1 media and 10 μM of Y27632. Forty eight hours post seeding, cultures were differentiated into pancreatic endocrine lineage as follows: • a. Stage 1 (Definitive Endoderm (DE)−3 days): Prior to start of DE, the cultures were washed and incubated with incomplete PBS (no Mg or Ca) for 30 seconds followed by addition of the stage 1 media. Human embryonic stem cells cultured as single cells on MATRIGEL™-coated dishes were treated with MCDB-131 medium supplemented with 0.1% fatty acid-free BSA, 0.0012 g/ml sodium bicarbonate, 1× GLUTAMAX™, 5 mM D-Glucose, and 100 ng/ml GDF8 plus 1 μM MCX compound (GSK3B inhibitor) for one day. Cells were then treated with MCDB-131 medium supplemented with 0.1% fatty acid-free BSA, 0.0012 g/ml sodium bicarbonate, 1× GLUTAMAX™, 5 mM glucose, and 100 ng/ml GDF8 plus 100 nM MCX compound for day two, followed by an additional day in MCDB-131 medium supplemented with 0.1% fatty acid-free BSA, 0.0012 g/ml sodium bicarbonate, 1× GLUTAMAX™, 5 mM Glucose, and 100 ng/ml GDF8. • b. Stage 2 (Primitive gut tube−2 days): Stage 1 cells were treated with MCDB-131 medium supplemented with 0.1% fatty acid-free BSA, 0.0012 g/ml sodium bicarbonate, 1× GLUTAMAX™, 5 mM D-Glucose, with or without the addition of 0.25 mM ascorbic acid and 25 ng/ml FGF7 for two days. • c. Stage 3 (Foregut−2 days): Stage 2 cells were treated with MCDB131 medium supplemented with 1:200 dilution of ITS-X, 2.5 mM Glucose, 1× GLUTAMAX™, 0.0015 g/ml sodium bicarbonate, 2% fatty acid-free BSA, 10 ng/ml Activin A, 25 ng/ml FGF7, 0.25 μM SANT-1, +/−0.25 mM ascorbic acid, 1 μM RA, 200 nM TPB, 100 nM LDN-193189 for day 1, followed by treatment with MCDB131 medium supplemented with 1:200 dilution of ITS-X, 2.5 mM Glucose, 1× GLUTAMAX™, 0.0015 g/ml sodium bicarbonate, 2% fatty acid-free BSA, 10 ng/ml Activin A, 25 ng/ml FGF7, 0.25 μM SANT-1, +/−0.25 mM ascorbic acid, 1 μM RA, 200 nM TPB, 10 nM LDN-193189 for an additional day. • d. Stage 4 (Pancreatic foregut precursor-2 days): Stage 3 cells were treated with MCDB131 medium supplemented with 1:200 dilution of ITS-X, 2.5 mM Glucose, 1× GLUTAMAX™, 0.0015 g/ml sodium bicarbonate, 2% fatty acid-free BSA, 0.25 μM SANT-1, 50 nM RA, 200 nM TPB, 50 nM LDN-193189, with or without the addition of 0.25 mM to 1 mM ascorbic acid for two days. • e. […]

[1] = at stage 5, ascorbic acid added at stages 2-4

SMILES: O=C1O[C@H]([C@@H](O)CO)C(O)=C1O [ascorbic acid]
- benefit of 0.5-1 mM as compared to 0.25 mM ascorbic acid (at S4): no significant benefit
- expression of insulin and Pax4 [1]: maintaining
- expression of somatostatin, glucagon, and Pax6 [1]: significantly reduced
- expression of glucagon and somatostatin (at stage S3-5, ascorbic acid added at stage 2): effective in lowering
